Test results from the supplement of paper PMC11061612.

What was measured:
[1] = system: CCK-81 (Colorectal Carcinoma); assay: combination Emax (second highest fraction inhibited in the dose matrix, 72 h); higher = more inhibition; extreme values may be limits of the assay
Summary of the method: (§1)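 Cell lines grown in DMEM/F12 or RPMI with 10% FBS were plated in 1536-well plates and held 24 hours at 37°C, 5% CO2 before 72 hours of exposure to two-drug dose matrices, with DMSO typically at 0.2%. CellTiter-Glo 2.0 luminescence gave viability, which was converted to inhibition. Vehicle wells were set to 0 and blank wells to 1. Combination Emax is the second-highest inhibition in the matrix, and Bliss excess is the observed combination effect minus the expected EA + EB − EA·EB, where EA and EB are the single-agent effects.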

[2] = system: NCI-H2066 (Squamous Cell Lung Carcinoma); assay: as above
Summary of the method: as §1

[3] = system: VCaP (Prostate Carcinoma); assay: as above
Summary of the method: as §1

[4] = system: NCI-H64 (Small Cell Lung Carcinoma); assay: as above
Summary of the method: as §1

[5] = system: ONS-76 (Other Solid Carcinomas); assay: as above
Summary of the method: as §1

FU97 (Gastric Carcinoma) [6] = assay: as above
Summary of the method: as §1

NY (Osteosarcoma) [7] = assay: as above
Summary of the method: as §1

U-2-OS (Osteosarcoma) [8] = assay: as above
Summary of the method: as §1

[9] = system: PANC-10-05 (Pancreatic Carcinoma); assay: as above
Summary of the method: as §1

[10] = system: NCI-H1581 (Non-Small Cell Lung Carcinoma); assay: as above
Summary of the method: as §1

[11] = system: KARPAS-422 (B-Cell Non-Hodgkin's Lymphoma); assay: as above
Summary of the method: as §1

IGR-37 (Melanoma) [12] = assay: as above
Summary of the method: as §1

[13] = system: COLO-320-HSR (Colorectal Carcinoma); assay: as above
Summary of the method: as §1

[14] = system: TT (Thyroid Gland Carcinoma); assay: as above
Summary of the method: as §1

[15] = system: NCI-H1666 (Lung Adenocarcinoma); assay: as above
Summary of the method: as §1

[16] = system: ECC10 (Gastric Carcinoma); assay: as above
Summary of the method: as §1

[17] = system: CAPAN-2 (Pancreatic Carcinoma); assay: as above
Summary of the method: as §1

[18] = system: CCK-81 (Colorectal Carcinoma); assay: Bliss excess, mean over the matrix (fraction); higher = more synergy
Summary of the method: as §1

[19] = system: NCI-H2066 (Squamous Cell Lung Carcinoma); assay: as above
Summary of the method: as §1

[20] = system: VCaP (Prostate Carcinoma); assay: as above
Summary of the method: as §1

[21] = system: NCI-H64 (Small Cell Lung Carcinoma); assay: as above
Summary of the method: as §1

[22] = system: ONS-76 (Other Solid Carcinomas); assay: as above
Summary of the method: as §1

FU97 (Gastric Carcinoma) [23] = assay: as above
Summary of the method: as §1

NY (Osteosarcoma) [24] = assay: as above
Summary of the method: as §1

U-2-OS (Osteosarcoma) [25] = assay: as above
Summary of the method: as §1

[26] = system: PANC-10-05 (Pancreatic Carcinoma); assay: as above
Summary of the method: as §1

[27] = system: NCI-H1581 (Non-Small Cell Lung Carcinoma); assay: as above
Summary of the method: as §1

[28] = system: KARPAS-422 (B-Cell Non-Hodgkin's Lymphoma); assay: as above
Summary of the method: as §1

IGR-37 (Melanoma) [29] = assay: as above
Summary of the method: as §1

[30] = system: COLO-320-HSR (Colorectal Carcinoma); assay: as above
Summary of the method: as §1

[31] = system: TT (Thyroid Gland Carcinoma); assay: as above
Summary of the method: as §1

[32] = system: NCI-H1666 (Lung Adenocarcinoma); assay: as above
Summary of the method: as §1

[33] = system: ECC10 (Gastric Carcinoma); assay: as above
Summary of the method: as §1

[34] = system: CAPAN-2 (Pancreatic Carcinoma); assay: as above
Summary of the method: as §1

[35] = system: BICR22 (Oral Cavity Carcinoma); assay: combination Emax (second highest fraction inhibited in the dose matrix, 72 h); higher = more inhibition; extreme values may be limits of the assay
Summary of the method: as §1

[36] = system: BICR22 (Oral Cavity Carcinoma); assay: Bliss excess, mean over the matrix (fraction); higher = more synergy
Summary of the method: as §1

U-698-M [37] = assay: combination Emax (second highest fraction inhibited in the dose matrix, 72 h); higher = more inhibition; settings: first compound max 1 µM, B-Cell Non-Hodgkin's Lymphoma, 7x7
Summary of the method: as §1

U-698-M [38] = assay: Bliss excess, mean over the matrix (fraction); higher = more synergy; settings: first compound max 1 µM, U-[…], B-Cell Non-Hodgkin's Lymphoma, 7x7
Summary of the method: as §1
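Wherever Bliss excess, mean over the matrix is given: after 72 h of two-drug dosing.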

Row | SMILES | combination Emax [1] | combination Emax [2] | combination Emax [3] | combination Emax [4] | combination Emax [5] | combination Emax (FU97 (Gastric Carcinoma) [6]) | combination Emax (NY (Osteosarcoma) [7]) | combination Emax (U-2-OS (Osteosarcoma) [8]) | combination Emax [9] | combination Emax [10] | combination Emax [11] | combination Emax (IGR-37 (Melanoma) [12]) | combination Emax [13] | combination Emax [14] | combination Emax [15] | combination Emax [16] | combination Emax [17] | Bliss excess [18] | Bliss excess [19] | Bliss excess [20] | Bliss excess [21] | Bliss excess [22] | Bliss excess (FU97 (Gastric Carcinoma) [23]) | Bliss excess (NY (Osteosarcoma) [24]) | Bliss excess (U-2-OS (Osteosarcoma) [25]) | Bliss excess [26] | Bliss excess [27] | Bliss excess [28] | Bliss excess (IGR-37 (Melanoma) [29]) | Bliss excess [30] | Bliss excess [31] | Bliss excess [32] | Bliss excess [33] | Bliss excess [34] | combination Emax [35] | Bliss excess [36] | combination Emax (U-698-M [37]; partner max 10 µM) | Bliss excess (U-698-M [38]; partner max 10 µM) | combination Emax (U-698-M [37]; partner max 3 µM) | Bliss excess (U-698-M [38]; partner max 3 µM)
1 | C=CCn1c(=O)c2cnc(Nc3ccc(N4CCN(C)CC4)cc3)nc2n1-c1cccc(C(C)(C)O)n1 [AZD1775] + CCc1c2c(nc3ccc(O)cc13)-c1cc3c(c(=O)n1C2)COC(=O)[C@]3(O)CC [SN-38] (first compound max 1 µM, partner max 0.3 µM) | 0.845 | 0.304 | 0.67 | 0.887 | 0.835 | 0.391 | 0.902 | 0.588 | 0.851 | 0.965 | 0.953 | 0.823 | 0.756 | 0.941 | 0.539 | 0.995 | 0.415 | -0.0839 | -0.0821 | -0.108 | -0.017 | -0.0392 | -0.0007 | -0.0575 | -0.0179 | -0.029 | 0.0811 | -0.0699 | -0.107 | -0.0294 | -0.0838 | -0.0452 | -0.0663 | -0.0501 |  |  |  |  |  | 
2 | C=CCn1c(=O)c2cnc(Nc3ccc(N4CCN(C)CC4)cc3)nc2n1-c1cccc(C(C)(C)O)n1 [AZD1775] + Nc1ccn([C@@H]2O[C@H](CO)[C@@H](O)C2(F)F)c(=O)n1 [Gemcitabine] (first compound max 1 µM, partner max 0.3 µM) | 0.81 | 0.217 | 0.839 | 0.905 | 0.559 | 0.362 | 0.7 | 0.724 | 0.631 | 0.948 | 0.847 | 0.674 | 0.811 | 0.486 | 0.46 | 0.821 | 0.43 | -0.0665 | -0.0678 | -0.0094 | -0.0098 | -0.0804 | -0.0313 | -0.0595 | 0.029 | -0.0504 | 0.124 | -0.0482 | -0.0346 | 0.0066 | -0.0228 | -0.0561 | 0.0012 | -0.065 | 0.943 | -0.0077 |  |  |  | 
3 | CN(CCO)CC[C@H](CSc1ccccc1)Nc1ccc(S(=O)(=O)NC(=O)c2ccc(N3CCC([C@@H](O)c4ccccc4-c4ccc(Cl)cc4)CC3)cc2)cc1S(=O)(=O)C(F)(F)F [AZD4320] + CC(=O)O[C@H]1C(=O)[C@@]2(C)[C@H]([C@H](OC(=O)c3ccccc3)[C@]3(O)C[C@H](OC(=O)[C@H](O)[C@@H](NC(=O)c4ccccc4)c4ccccc4)C(C)=C1C3(C)C)[C@]1(OC(C)=O)CO[C@@H]1C[C@@H]2O [Paclitaxel] (first compound max 1 µM, 7x7, partner max 3 µM) | 1 | 0.856 | 0.881 | 1 | 0.919 | 0.433 | 0.981 | 0.922 | 0.64 | 0.99 | 0.999 | 0.938 | 0.791 | 0.665 | 0.841 | 1 | 0.853 | -0.0433 | 0.124 | 0.0175 | 0.237 | 0.0661 | 0.101 | -0.0067 | 0.0272 | -0.0275 | 0.0126 | 0.141 | -0.0174 | 0.0041 | 0.184 | 0.112 | 0.0272 | 0.0494 | 0.981 | -0.0024 |  |  |  | 
4 | CN(CCO)CC[C@H](CSc1ccccc1)Nc1ccc(S(=O)(=O)NC(=O)c2ccc(N3CCC([C@@H](O)c4ccccc4-c4ccc(Cl)cc4)CC3)cc2)cc1S(=O)(=O)C(F)(F)F [AZD4320] + CS(=O)(=O)CCNCc1ccc(-c2ccc3ncnc(Nc4ccc(OCc5cccc(F)c5)c(Cl)c4)c3c2)o1 [Lapatinib] (first compound max 1 µM, 7x7, partner max 10 µM) | 1 | 0.917 | 0.434 | 0.995 | 0.839 |  | 0.564 | 0.571 | 0.72 | 0.398 | 0.985 | 0.282 | 0.261 | 0.363 |  | 1 | 0.947 | 0.0767 | -0.0109 | 0.0003 | 0.0352 | 0.0068 | -0.0253 | 0.0035 | 0.0382 | -0.021 | -0.0047 | 0.0596 | -0.0519 | -0.0638 | 0.012 | 0.0943 | 0.0318 | 0.0523 | 0.958 | 0.0806 |  |  |  | 
5 | C[C@@H]1COCCN1c1cc(C2([S@](C)(=N)=O)CC2)nc(-c2ccnc3[nH]ccc23)n1 [AZD6738] + Nc1ccn([C@@H]2O[C@H](CO)[C@@H](O)C2(F)F)c(=O)n1 [Gemcitabine] (first compound max 10 µM, 7x7, partner max 0.3 µM) | 0.888 | 0.368 | 0.837 | 0.936 | 0.817 | 0.398 | 0.777 | 0.83 | 0.631 | 0.975 | 0.749 | 0.794 | 0.852 | 0.526 | 0.553 | 0.866 | 0.313 | 0.0606 | -0.0525 | 0.0509 | 0.0857 | -0.0644 | 0.0306 | 0.0071 | 0.107 | 0.0682 | 0.128 | -0.0523 | -0.0837 | 0.0818 | 0.0446 | -0.0247 |  | 0.018 | 0.958 | -0.007 |  |  |  | 
6 | N#Cc1cnc(Nc2cc(NC[C@H]3CNCCO3)c(C(F)(F)F)cn2)cn1 [SRA737] + CCc1c2c(nc3ccc(O)cc13)-c1cc3c(c(=O)n1C2)COC(=O)[C@]3(O)CC [SN-38] (first compound max 10 µM, 7x7, partner max 0.3 µM) | 0.78 | 0.345 | 0.59 | 0.818 | 0.876 | 0.408 | 0.928 | 0.61 | 0.86 | 0.86 | 0.91 | 0.818 | 0.657 | 0.883 |  | 0.973 | 0.25 | -0.067 | -0.0192 | -0.0295 | -0.0347 | -0.0554 | -0.0739 | -0.0729 | -0.0473 | -0.006 | 0.135 | 0.0019 | -0.111 | 0.112 | -0.0712 | -0.0679 | -0.0016 | -0.0041 | 0.893 | -0.0185 |  |  |  | 
7 | CC1(C)CCC(CN2CCN(c3ccc(C(=O)NS(=O)(=O)c4ccc(NCC5CCOCC5)c([N+](=O)[O-])c4)c(Oc4cnc5[nH]ccc5c4)c3)CC2)=C(c2ccc(Cl)cc2)C1 [Venetoclax] + Cc1cc2ncnn2cc1Nc1ncc2c(n1)n(C1CCOCC1)c(=O)n2C [AZD7648] |  |  |  |  |  |  |  |  |  |  |  |  |  |  |  |  |  |  |  |  |  |  |  |  |  |  |  |  |  |  |  |  |  |  |  |  | 0.57 | 0.041 |  | 
8 | CC1(C)CCC(CN2CCN(c3ccc(C(=O)NS(=O)(=O)c4ccc(NCC5CCOCC5)c([N+](=O)[O-])c4)c(Oc4cnc5[nH]ccc5c4)c3)CC2)=C(c2ccc(Cl)cc2)C1 [Venetoclax] + Cn1cnc2c(F)c(Nc3ccc(Br)cc3Cl)c(C(=O)NOCCO)cc21 [Selumetinib] |  |  |  |  |  |  |  |  |  |  |  |  |  |  |  |  |  |  |  |  |  |  |  |  |  |  |  |  |  |  |  |  |  |  |  |  |  |  | 0.408 | -0.0473
